According to paper PMC9652300, “Neolignans isolated from Saururus cernuus L. (Saururaceae) exhibit efficacy against Schistosoma mansoni” (Scientific Reports, 2022):
Like-named read-outs stand apart in the source and are kept apart here.

Assays:
[1] = tested on: S. mansoni adult worms; conditions: cited from earlier work
[2] = tested on: S. mansoni adult worms; test: Antischistosomal assay: viability of ex vivo adult worm pairs; type: cell-based
Experimental: The life cycle of S. mansoni (BH strain) is maintained by routine passage through Biomphalaria glabrata snails and Swiss mice at Guarulhos University (UNG, Guarulhos, SP, Brazil). Rodents, three weeks-old, were purchased from Animais de Laboratório Criação e Comércio (Paulínea, SP, Brazil). Both mice and snails were kept under environmentally controlled conditions (25 °C; humidity of 50%), with free access to food and water. Cercariae of S. mansoni were obtained from infected intermediate host snails in our laboratories as described previously[63],[64].
(§1) The antischistosomal assay was performed as previously described[65],[66]. Briefly, S. mansoni adult parasites were obtained from infected mice at day 42 post-infection (parasite ex vivo). One adult male and one adult female worms (i.e. one worm pairs) were incubated in flat bottom 24-well plates (Corning, New York, NY, USA) in the presence of threo-austrobailignan-6 and verrucosin (started at 50 µM and followed a twofold dilution series) in RPMI 1640 culture medium supplemented with 5% inactivated fetal calf serum and containing antibiotics (100 U/mL penicillin and 100 μg/mL streptomycin). The control schistosomes were assayed in a culture medium and 0.5% DMSO (representing the highest concentration of solvent). Each concentration (50, 25, 12.5, 6.25, 3.12 µM) was tested in five replicates, and the experiments were repeated three times. Parasites were kept for 72 h (37 °C, 5% CO2), and their viability was monitored microscopically at 2, 24, 48, and 72 h using both a Motic AE2000 inverted microscope (Vancouver, Canada) and a Leica EZ4E stereomicroscope (Wetzlar, Germany). The death of adult schistosomes was defined as no movement observed for at least 1 to 2 min of examination, whereas parasites with any body movement were considered viable. The percentage of viable adult schistosomes was calculated considering worms exposed to compounds vs control worms. For assessment of the reproductive fitness of S. mansoni, the number of eggs was counted daily using an inverted microscope (Motic) as previously described.
(§2) Statistical analyses were performed using Graph Pad Prism software 8.0 (San Diego, CA, USA). Data are presented as the mean ± standard deviation (SD) of at least three independent experiments, EC50 and, CC50 values were calculated using sigmoid dose–response curves. For S. mansoni egg production, significant differences were determined by one-way analysis of variance (ANOVA) and applying Tukey's test for multiple comparisons with a level of significance set at P < 0.05.

[3] = Cytotoxicity MTT assay, Vero cells; type: cell-based, African green monkey; conditions: African green monkey, Vero cells (monkey kidney cells); Vero cells, MTT, 72 h
Experimental: (§3) HaCaT (human epithelial cells) and Vero (monkey kidney cells) were obtained from the Banco de Células do Rio de Janeiro (BCRJ, RJ, Brazil) and the American Type Culture Collection (ATCC CCL-81; Manassas, VA, USA), respectively. Cells were cultured in DMEM medium supplemented with 10% heat-inactivated fetal bovine serum and antibiotics (100 U/mL penicillin and 100 μg/mL streptomycin) at 37 °C in a humidified atmosphere containing 5% CO2. They were maintained in 25 cm^2 culture flasks (Corning, Tewksbury, MA, USA) and harvested using 0.25% trypsin in 0.2 g/L EDTA solution.
(§4) The MTT assay was used to evaluate the cytotoxic activity as previously described[71],[72]. Briefly, cells were seeded (2 × 10^3/well in 96-well culture plates) and incubated with threo-austrobailignan-6 and verrucosin (started at 500 µM and followed a threefold dilution series) for 72 h at 37 °C and 5% CO2. MTT solution was added to each well and the absorbance was read on an Epoch Microplate Spectrophotometer (BioTek Instruments, Winooski, VT, USA) at 595 nm. The selectivity indices (SI) were calculated by dividing the 50% cytotoxic concentration (CC50) obtained on cells with 50% effective concentration (EC50) values determined on schistosomes.
as §2

[4] = tested on: Vero (monkey kidney cells); test: Cytotoxicity MTT assay, Vero cells; type: cell-based, African green monkey; conditions: CC50 Vero / EC50 S. mansoni
Experimental: as §3, §4, §2

[5] = Cytotoxicity MTT assay, HaCaT cells; type: cell-based, human; conditions: human, HaCaT cells (human epithelial cells); HaCaT cells, MTT, 72 h
Experimental: as §3, §4, §2

[6] = tested on: HaCaT (human epithelial cells); test: Cytotoxicity MTT assay, HaCaT cells; type: cell-based; conditions: CC50 HaCaT / EC50 S. mansoni
Experimental: as §3, §4, §2

[7] = tested on: S. mansoni adult worm pairs; test: Egg production (reproductive fitness) of paired adult worms; type: cell-based, Schistosoma mansoni; conditions: for oviposition / total number of eggs vs control worms: within 72 h
Experimental: as §1, §2

[8] = tested on: S. mansoni infections; set-up: method as in PMID 25412105, PMID 28126024; conditions: systematic reviews and meta-analyses; cited from earlier work
[9] = Schistosoma mansoni, 72 h, ex vivo adult female worms, 72 h exposure, brackets = 95% confidence interval, read-out: S. mansoni EC50 Female
[10] = Schistosoma mansoni, 72 h, ex vivo adult male worms, 72 h exposure, brackets = 95% confidence interval, read-out: S. mansoni EC50 Male
[11] = Schistosoma mansoni, 72 h, adult worms, male and female, 72 h, read-out: EC50 (schistosomicidal activity)

CC(C)CCCC(C)CCO (stereo not drawn) [3,7-dimethylloctanol]
in vitro effective concentration [1]: 52 µM

C=CC(C)(C)c1cc(/C=C/C(=O)c2ccc(O)cc2)c(OC)cc1O [licochalcone A]
in vitro effective concentration [1]: 50 µM

Cc1ccc(C(C)C)cc1O [carvacrol]
in vitro effective concentration [1]: 56.8 µM

COc1cc(O)cc(O)c1C(=O)/C=C/c1ccccc1 [cardamonin]
in vitro effective concentration [1]: 25 µM

C/C=C/c1cc(OC)c2c(c1)[C@H](C)[C@@H](c1ccc(O)c(OC)c1)O2 [licarin A]
in vitro effective concentration [1]: 30 µM

COc1cc([C@H]2O[C@@H](c3ccc(O)c(OC)c3)[C@@H](C)[C@@H]2C)ccc1O [Verrucosin, verrucosin]
time to death of all female worms ([2]; 25 μM): ≤ 72 h
mortality at 25 µM ([2]; Schistosoma mansoni, 48 h, read-out: mortality of male parasites): 100%
EC50 [2, 9]: 18.7 µM
EC50 [2, 10]: 12.6 µM
EC50 ([2]; adult worms, male and female, 72 h, read-out: EC50 (schistosomicidal activity)): < 30 µM
CC50 at 72 h [3]: > 500 µM
Monkey cells SI (Selectivity Index) [4]: > 26.8
CC50 at 72 h [5]: > 500 µM
Human cells SI (Selectivity Index) [6]: > 26.8
oviposition ([7]; 12.5 μM, P < 0.01): significant reduction
pairing of male and female parasites ([7]; 25 μM): remained coupled
total number of eggs vs control worms ([7]; 25 μM): significantly reduced
pairing of male and female parasites ([7]; 50 μM): separated
oviposition ([7]; 50 μM): complete lack of oviposition

O=C(C1CCCCC1)N1CC(=O)N2CCc3ccccc3C2C1 (stereo not drawn) [Praziquantel, praziquantel, reference compound]
EC50 [2, 11]: < 0.93 µM
EC50 [2, 9]: 0.8 µM
EC50 [2, 10]: 0.7 µM
mortality of adult worm pairs ([2]; praziquantel at 2 µM, monitored up to 72 h): mortality of all worms immediately
CC50 at 72 h [3]: > 500 µM
Monkey cells SI (Selectivity Index) [4]: > 714
CC50 at 72 h [5]: > 500 µM
cure rate [8]: approximately 75%

CC(=O)Oc1cc(C(C)C)ccc1C [carvacryl acetate]
in vitro effective concentration [1]: 42.16 µM

2-oxopopulifolic acid methyl ester
in vitro effective concentration [1]: 50 µM

COc1cc(C[C@@H](C)[C@H](C)Cc2ccc3c(c2)OCO3)ccc1O [Threo-austrobailignan-6, threo-austrobailignan-6]
EC50 [2, 11]: < 30 µM
EC50 [2, 9]: 28.1 µM
EC50 [2, 10]: 22.9 µM
mortality at 25 µM ([2]; Schistosoma mansoni, 72 h, read-out: mortality of male worms): 100%
CC50 at 72 h [3]: > 500 µM
Monkey cells SI (Selectivity Index) [4]: > 17.8
CC50 at 72 h [5]: > 500 µM
Human cells SI (Selectivity Index) [6]: > 17.8
pairing of male and female parasites ([7]; 25 μM): remained coupled
total number of eggs vs control worms ([7]; 25 μM): significantly reduced
pairing of male and female parasites ([7]; 50 μM): separated
oviposition ([7]; 50 μM): complete lack of oviposition

C=C1C[C@@]23CC[C@H]4[C@@](C)(CCC[C@@]4(C)C(=O)O)[C@@H]2CC[C@@H]1C3 [ent-kaur-16-en-19-oic acid]
in vitro effective concentration [1]: 26.1 µM

C=CC(C)(O)CCC=C(C)CCC=C(C)C (mixture of isomers) [nerolidol]
in vitro effective concentration [1]: 85 µM

C=C1C(=O)O[C@@H]2/C=C(\CO)CC/C=C(\C)C[C@H](OC(=O)C(=C)[C@@H](O)CO)[C@@H]12 [cnicin]
in vitro effective concentration [1]: 50 µM

CC1=CC(=O)CC2[C@]1(C)CC[C@@H](C)[C@]2(C)CCC(C)CC(=O)O (stereo partly drawn) [2-oxopopulifolic acid]
in vitro effective concentration [1]: 50 µM
